From patent US5461057A, “Hydro-ethano-indeno-pyridines” (priority 1994, dated 1995)
Read-outs that look alike come from different tables or passages of the source.

Tests used:
[1] = tested on: histamine-induced dyspnea; test: Bronchodilator (in vivo) Guinea Pig Dyspnea; settings: oral, one hour before histamine challenge
Method in brief: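 Fasted, unanesthetized guinea pigs (250-350 g) received the test drug orally one hour before exposure to an aerosolized 0.1% histamine solution. Onset of dyspnea was recorded, and data were expressed as number tested over number survived.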

[2] = tested on: LOX human melanoma cell adhesion to human fibronectin; test: LOX melanoma cell adhesion to fibronectin; format: cell-based; settings: Homo sapiens, LOX; for inhibition at 10 µM: read-out: % Inhibition at 10 μM; for inhibition at 50 µM: read-out: % Inhibition at 50 μM
Method in brief: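 Compound added to fibronectin-coated (140 ng/well), BSA-blocked wells before LOX cells (1×10^5/well, detached with urea/EDTA). Cells adhered 1 h at 37 °C, then washed. Adherent cells quantified by calcein AM fluorescence (485/530 nm); IC50 for adhesion inhibition.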

[3] = tested on: B16-F10 mouse melanoma cell adhesion to fibronectin; test: B16-F10 melanoma cell adhesion to fibronectin; format: cell-based; settings: read-out: B16 FN IC50
Description: (§1) Adhesion assays were run essentially as described previously (Pai et al., J. Biomed. Res. 2: 53, 1992). 96-well plates were coated with human fibronectin (140 ng/well), human vitronectin (75 ng/well), human collagen I (100 ng/well), human collagen IV (100 ng/well), human fibrinogen (1 μg/well), murine laminin (600 ng/well), or polylysine, and incubated overnight in a humidified 37° C. incubator. Excess fibronectin or other substrate was then removed and 0.2 ml of 2 mg/ml bovine serum albumin (BSA)in Dulbecco's phosphate-buffered saline (DPBS) was added to each well, incubated for 2 hours at 37° C., and removed. LOX human melanoma cells, M27 murine lung carcinoma cells or B16F10 mouse melanoma cells were detached from tissue culture flasks with RPMI medium containing 0.2M urea and 10 mM EDTA, and 0.18 ml of cells were added to each well to a final cell concentration of 1×10^5 cells/well. For inhibition studies 20 μl of 10× compound was added to the wells prior to cell addition. Cells were allowed to adhere for 1 hour at 37° C. The wells were then gently washed twice with 0.2 ml DPBS. The fluorescent dye calcein AM (Molecular Probes, Eugene Oreg.) in DPBS (0.1 ml of 1 μM) was added to each well, and the plates were incubated for 1 hour at room temperature. Adherent cells were quantitated by reading the fluorescence on a Cytofluor 2300 fluorescent plate reader (Millipore) at 485 nm excitation and 530 nm emission.

[4] = Calcein cytotoxicity assay; format: cell-based; settings: human, lox melanoma cells; for CC50 at 2 h / CC50 at 6 h: calcein AM assay; for CC50 at 2 h: read-out: 2 Hr Tox LD50; for CC50 at 6 h: read-out: 6 Hr Tox LD50
MTT cytotoxicity assay = format: cell-based; settings: human, lox melanoma cells; for CC50 at 1 h: read-out: MTT 1 Hr LD50
Description: LOX human melanoma cells, in RPMI medium with 2 mg/ml BSA and 25 mM HEPES, pH 7.4, were seeded at 4×10^4 cells/well in 96-well microtiter plates and grown overnight in a humidified 37° C. incubator. On the following day, the medium was aspirated and wells were washed once with 0.1 ml of DPBS. Compounds (0.1 ml) in DPBS were added to wells in quadruplicate at appropriate concentrations. The cells were then incubated with test compound for 1 hour at 37° C. Wells were aspirated and washed 2× with 0.1 ml DPBS. MTT [3-(4,5-Dimethylthiazol-2-yl)-2,5-diphenyltetrazolium bromide] (0.1 ml of 1 mg/ml solution in PBS from Sigma Chemical Co.) was added to each well and incubated for 2 hour at 37° C. MTT was aspirated and 0.1 ml of 50% N,N-dimethylformamide with 20% sodium dodecyl sulfate was added to each well. Plates were shaken for 10 minutes on a Titer-Plate shaker (Labline) at room temperature. Optical density was read at 570 nm with a plate-reading spectrophotometer (Dynatech MR5000).

[5] = tested on: LOX human melanoma cell adhesion to polylysine; test: LOX melanoma cell adhesion to polylysine; format: cell-based; settings: read-out: Poly Lys IC50
ICAM-1 = target: T1, ICAM-1 (Homo sapiens, UniProt P05362); test: HL-60 cell adhesion to recombinant soluble ICAM-1; format: cell-based; settings: HL-60 cells
T1 construct: recombinant soluble ICAM-1 (2 μg/well)
Description: For measurement of cell adhesion to ICAM-1, HL-60 human leukemia cells were induced to differentiate in the presence of DMSO for 6 days. Adhesion of DMSO-differentiated HL-60 cells to recombinant soluble ICAM-1 (2 μg/well) was measured as described above for LOX cell adhesion, except that the adhesion was allowed to proceed for 30 minutes, rather than 1 hour, at 37° C.
ICAM-1 is a cell surface adhesion molecule that participates in cell-cell adhesion interactions, rather than cell-matrix adhesion interactions.

[6] = tested on: LOX human melanoma cell adhesion to human collagen I; test: LOX cell adhesion to collagen I; format: cell-based; settings: read-out: Collagen I IC50
Description: as §1

[7] = tested on: LOX human melanoma cell adhesion to human vitronectin; test: LOX cell adhesion to vitronectin; format: cell-based; settings: read-out: Vitronectin IC50
Description: as §1

[8] = tested on: LOX human melanoma cell adhesion to human fibrinogen; test: LOX cell adhesion to fibrinogen; format: cell-based; settings: read-out: Fibrinogen IC50
Description: as §1

T1 sequence (P05362 28-480 limits assumed): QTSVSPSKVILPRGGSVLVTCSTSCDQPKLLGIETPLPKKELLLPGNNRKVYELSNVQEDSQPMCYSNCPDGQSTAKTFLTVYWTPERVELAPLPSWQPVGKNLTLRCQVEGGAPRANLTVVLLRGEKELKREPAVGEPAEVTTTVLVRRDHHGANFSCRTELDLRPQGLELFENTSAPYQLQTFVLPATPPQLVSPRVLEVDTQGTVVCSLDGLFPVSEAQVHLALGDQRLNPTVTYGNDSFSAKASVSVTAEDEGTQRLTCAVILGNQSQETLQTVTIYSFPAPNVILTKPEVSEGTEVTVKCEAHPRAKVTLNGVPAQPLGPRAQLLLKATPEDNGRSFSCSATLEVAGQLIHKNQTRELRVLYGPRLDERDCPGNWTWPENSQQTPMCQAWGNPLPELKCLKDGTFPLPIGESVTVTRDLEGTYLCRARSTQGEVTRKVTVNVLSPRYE

| SMILES | DYSP survivors ([1]; 100 mg/kg) | IC50 ([2]; 1 h, read-out: LOX FN IC50) | inhibition at 10 µM [2] | inhibition at 50 µM [2] | IC50 ([2]; read-out: Fibronectin IC50) | IC50 [3] | CC50 at 2 h ([4]; 2 hours) | CC50 at 6 h ([4]; 6 hours) | CC50 at 1 h (MTT cytotoxicity assay) | IC50 [5] | IC50 (ICAM-1) | IC50 [6] | IC50 [7] | IC50 [8] | responders at 100 mg/kg ([1]; Cavia porcellus, 1 h, 100 mg/kg, read-out: DYSP survivors (converted)) | selectivity ratio at 2 h ([4]; 2 hours, calcein AM, read-out: selectivity for blockade of fibronectin adhesion vs. cytotoxicity (2 Hour Tox)) | selectivity ratio at 6 h ([4]; 6 hours, calcein AM, read-out: selectivity for blockade of invasion vs. cytotoxicity (6 Hour Tox)) | selectivity ratio at 1 h (MTT cytotoxicity assay; MTT, read-out: selectivity for blockade of fibronectin adhesion vs. cytotoxicity (MTT 1 hour)) | DYSP survivors ([1]; 10 mg/kg) | DYSP survivors ([1]; 50 mg/kg) |
| --- | --- | --- | --- | --- | --- | --- | --- | --- | --- | --- | --- | --- | --- | --- | --- | --- | --- | --- | --- | --- |
| CN1C2CCC1C1C(=C(c3ccc(Cl)cc3)c3ccccc31)C2 (centres unmarked) [C] | 0/3 | 7.3 µM | 58.6% | 101% | 7.3 µM | 15.1 µM | 85.3 µM | 22.5 µM | 95.1 µM | 248 µM | 24.8 µM | 4 µM | 5.9 µM | 6.2 µM |  |  |  |  |  |  |
| COc1ccc(C2=C3CC4CCC(N4)C3c3ccccc32)cc1 (centres unmarked) [Compound B] |  | 5.1 µM | 61.8% | 101% | 5.1 µM | 14.7 µM | 74.5 µM | 24.6 µM | 97.6 µM | 22.3 µM | > 50 µM | 6.7 µM | 16.8 µM | 9.9 µM | 0% | 15 | > 61 | 19 |  |  |
| Cc1ccc(C2=C3CC4CCC(C3c3ccccc32)N4C)cc1 (centres unmarked) [J] | 3/3 | 5.3 µM | 31.1% | 101% | 5.3 µM | 15.9 µM | 58.4 µM | 30.6 µM | 54.6 µM | 53.2 µM | > 50 µM | 4.5 µM | 12.8 µM | 13.5 µM |  |  |  |  | 0/3 | 1/3 |
